Measurements: US20160145247A1, “Aminomethyl-Biaryl Derivatives Complement Factor D inhibitors and uses thereof” (NOVARTIS AG, priority 2013, published 2016)

Biological target: T1, factor D (Homo sapiens, UniProt P00746)
T1 construct: made in house; host or cells: E. coli
Assay: factor D inhibition assay of Biological Example 2
Format: biochemical

T1 sequence (P00746 26-253): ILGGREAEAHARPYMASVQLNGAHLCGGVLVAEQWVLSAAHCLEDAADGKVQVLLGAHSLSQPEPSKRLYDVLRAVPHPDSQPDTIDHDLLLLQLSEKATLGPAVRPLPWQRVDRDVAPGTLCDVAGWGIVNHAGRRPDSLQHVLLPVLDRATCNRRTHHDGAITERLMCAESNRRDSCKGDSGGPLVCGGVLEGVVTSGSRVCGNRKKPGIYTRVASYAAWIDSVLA

Compound	IC50 [nM]
N[C@H](CO)c1cccc(-c2cc(C(=O)Nc3ccccc3CC(=O)O)cc(-c3cccc([C@H](N)CO)c3)c2)c1 [Example 82-B, 2-(2-(3,3″-bis((S)-1-amino-2-hydroxyethyl)-[1,1′:3′,1″-terphenyl]-5′-ylcarboxamido)phenyl)acetic acid]	19
COCCNc1cc(C(=O)Nc2ccccc2CC(=O)O)cc(-c2cccc([C@H](N)CO)c2)c1 [Example 83-D, (S)-2-(2-(3′-(1-amino-2-hydroxyethyl)-5-((2-methoxyethyl)amino)-[1,1′-biphenyl]-3-ylcarboxamido)phenyl)acetic acid]	22
COCCNc1cc(COc2ccccc2CC(=O)O)cc(-c2cccc([C@H](N)CO)c2)c1 [Example 84, (S)-2-(2-((3′-(1-Amino-2-hydroxyethyl)-5-((2-methoxyethyl)amino)-[1,1′-biphenyl]-3-yl)methoxy)phenyl)acetic acid]	5
CCOC(=O)Cc1ccccc1NC(=O)c1cc(NC[C@H]2CCCO2)cc(-c2cc(F)cc(CN)c2)c1 [Example 85, (R)-Ethyl 2-(2-(3′-(aminomethyl)-5′-fluoro-5-(((tetrahydrofuran-2-yl)methyl)amino)-[1,1′-biphenyl]-3-ylcarboxamido)phenyl)acetate]	709
N[C@H](CCO)c1cccc(-c2cccc(C(=O)Nc3ccccc3CC(=O)O)c2)c1 [Example 88, (R)-2-(2-(3′-(1-Amino-3-hydroxypropyl)-[1,1′-biphenyl]-3-ylcarboxamido)phenyl)acetic acid]	958
N[C@@H](CCO)c1cccc(-c2cccc(C(=O)Nc3ccccc3CC(=O)O)c2)c1 [Example 89, (S)-2-(2-(3′-(1-Amino-3-hydroxypropyl)-[1,1′-biphenyl]-3-ylcarboxamido)phenyl)acetic acid]	5250
C[C@@H](N)c1cccc(-c2cccc(C(=O)Nc3ccccc3CC(=O)O)c2)c1 [Example 90, (R)-2-(2-(3′-(1-aminoethyl)-[1,1′-biphenyl]-3-ylcarboxamido)phenyl)acetic acid]	823
COc1c(C(=O)Nc2ccccc2CC(=O)O)cccc1-c1cccc(CN)c1 [Example 91, 2-(2-(3′-(Aminomethyl)-2-methoxy-[1,1′-biphenyl]-3-ylcarboxamido)phenyl)acetic acid]	22300
NC1(c2cccc(-c3cccc(C(=O)Nc4ccccc4CC(=O)O)c3)c2)CC1 [Example 92, 2-(2-(3′-(1-Aminocyclopropyl)-[1,1′-biphenyl]-3-ylcarboxamido)phenyl)acetic acid]	8470
COc1c(C(=O)Nc2ccccc2CC(=O)O)cccc1-c1cc(F)cc(CN)c1 [Example 93-B, 2-(2-(3′-(Aminomethyl)-5′-fluoro-2-methoxy-[1,1′-biphenyl]-3-ylcarboxamido)phenyl)acetic acid]	6720
N[C@H](CCO)c1cccc(-c2cc(COc3ccccc3CC(=O)O)cc(NCC3CC3)c2)c1 [Example 94-C, (R)-2-(2-((3′-(1-amino-3-hydroxypropyl)-5-((cyclopropylmethyl)amino)-[1,1′-biphenyl]-3-yl)methoxy)phenyl)acetic acid]	27
NCc1cc(F)cc(-c2cc(C(=O)O)cc(C(=O)Nc3ccccc3CC(=O)O)c2)c1 [Example 95-B, 3′-(Aminomethyl)-5-((2-(carboxymethyl)phenyl)carbamoyl)-5′-fluoro-[1,1′-biphenyl]-3-carboxylic acid]	2240
CCC(=O)Nc1cc(C(=O)Nc2ccccc2CC(=O)O)cc(-c2cc(F)cc(CN)c2)c1 [Example 96-D, 2-(2-(3′-(Aminomethyl)-5′-fluoro-5-propionamido-[1,1′-biphenyl]-3-ylcarboxamido)phenyl)acetic acid]	21
CC(C)C(=O)Nc1cc(C(=O)Nc2ccccc2CC(=O)O)cc(-c2cc(F)cc(CN)c2)c1 [Example 97, 2-(2-(3′-(Aminomethyl)-5′-fluoro-5-isobutyramido-[1,1′-biphenyl]-3-ylcarboxamido)phenyl)acetic acid]	45
